Measurements published in patent EP4692090A1 (Shanghai Fosun Pharmaceutical (Group) Co., Ltd., priority 2023, dated 2024).
pIC50: −log10 of the molar value. Like-named read-outs stand apart in the source and are kept apart here.

Experiments:
ATR kinase = biological target: T1, ATR kinase (Homo sapiens, UniProt Q13535); assay: Inhibitory effect on ATR kinase activity (Caliper mobility shift, FAM-labeled RAD17 peptide substrate); type: biochemical
T1 construct: purchased Eurofins 14-953
Method: Test Example 1: Inhibitory effect of the compounds of the present disclosure on ATR kinase activity
Test compounds to be tested were serially diluted with DMSO (maximum concentration 1 µM, 10 concentrations with 3-fold serial dilution) and added to the wells of a 384-well reaction plate (Corning, #4512). 1 nM ATR kinase (Eurofins, #14-953), 5 mM substrate (FAM-labeled RAD17 peptide, FAM-ASELPASQPQPFSAKKK), 5 mM ATP and the compounds with corresponding concentrations reacted in a kinase reaction solution (50 mM HEPES, pH 7.5; 0.0015% Brij-35; 10 mM MnCl2, total volume of 20 µL) at 28°C for 3 hours. The reaction was terminated by adding 30 µL of stop solution (100 mM HEPES, pH 7.5; 0.015% Brij-35; 0.2% Coating Reagent #3, PerkinElmer; 50 mM EDTA). The reaction plate was placed on a Caliper instrument (PerkinElmer) for testing. The relative inhibitory activity of each compound concentration group was calculated using the following formula: % Inhibition = (Conversion rate of the blank control group without compound added - Conversion rate of the test compound group) / (Conversion rate of the blank control group - […]). The IC50 values were calculated using GraphPad analysis and fitted. […] Table 1. Inhibitory effect (IC50) of compounds on ATR kinase activity.

LoVo cells = assay: LoVo cell proliferation assay (CellTiter-Glo); type: cell-based; conditions: maximum concentration 10 µM, 9 concentrations; for pIC50: LoVo cells, 2,000 cells per well, 5 days incubation, CellTiter-Glo, read-out: LoVo IC50; for IC50: read-out: LoVo IC50 (nM), LoVo cells, 2,000 cells per well, 5 days incubation, CellTiter-Glo
Method: Test Example 2: LoVo cell proliferation assay
LoVo (ATCC, #CRL-229) cells in logarithmic growth phase were digested, counted, and plated into 96-well cell culture plates at 2,000 cells per well. The plates containing cells were incubated overnight at 37°C in a 5% CO2 incubator, and then test compounds with 3-fold gradient dilutions (maximum concentration: 10 µM, 9 concentrations) were added. DMSO was used as a blank control. After the LoVo cells containing the compounds or DMSO were incubated for an additional 5 days, an equal volume of CellTiter-Glo reagent (Promega, #7573) was added. After incubation at room temperature for 30 minutes, chemiluminescence was read using an Envision 2105 (PerkinElmer). The cell proliferation inhibition rate (%) for wells treated with each concentration of the compounds was calculated using the following formula. Then, with compound concentration as the horizontal axis and cell proliferation inhibition rate (%) as the vertical axis, GraphPad software was used to plot the data and determine the IC50 values of the test compounds. The results are shown in Table 2, wherein the IC50 ranges are defined as follows: A: ≤ 100 nM; 1000 nM ≥ B > 100 nM; C > 1000 nM.
Cell proliferation inhibition (%) = (1 - luminescence value of compound-treated group / average luminescence value of DMSO blank control group) × 100. Table 2. Inhibitory effect of compounds on LoVo growth

[1] = 1 nM ATR kinase (Eurofins), 28°C for 3 hours, maximum concentration 1 µM, 10 concentrations, read-out: ATR kinase IC50
[2] = read-out: ATR kinase IC50, 1 nM ATR kinase (Eurofins), 28°C for 3 hours, maximum concentration 1 µM, 10 concentrations

T1 sequence (Q13535 whole entry): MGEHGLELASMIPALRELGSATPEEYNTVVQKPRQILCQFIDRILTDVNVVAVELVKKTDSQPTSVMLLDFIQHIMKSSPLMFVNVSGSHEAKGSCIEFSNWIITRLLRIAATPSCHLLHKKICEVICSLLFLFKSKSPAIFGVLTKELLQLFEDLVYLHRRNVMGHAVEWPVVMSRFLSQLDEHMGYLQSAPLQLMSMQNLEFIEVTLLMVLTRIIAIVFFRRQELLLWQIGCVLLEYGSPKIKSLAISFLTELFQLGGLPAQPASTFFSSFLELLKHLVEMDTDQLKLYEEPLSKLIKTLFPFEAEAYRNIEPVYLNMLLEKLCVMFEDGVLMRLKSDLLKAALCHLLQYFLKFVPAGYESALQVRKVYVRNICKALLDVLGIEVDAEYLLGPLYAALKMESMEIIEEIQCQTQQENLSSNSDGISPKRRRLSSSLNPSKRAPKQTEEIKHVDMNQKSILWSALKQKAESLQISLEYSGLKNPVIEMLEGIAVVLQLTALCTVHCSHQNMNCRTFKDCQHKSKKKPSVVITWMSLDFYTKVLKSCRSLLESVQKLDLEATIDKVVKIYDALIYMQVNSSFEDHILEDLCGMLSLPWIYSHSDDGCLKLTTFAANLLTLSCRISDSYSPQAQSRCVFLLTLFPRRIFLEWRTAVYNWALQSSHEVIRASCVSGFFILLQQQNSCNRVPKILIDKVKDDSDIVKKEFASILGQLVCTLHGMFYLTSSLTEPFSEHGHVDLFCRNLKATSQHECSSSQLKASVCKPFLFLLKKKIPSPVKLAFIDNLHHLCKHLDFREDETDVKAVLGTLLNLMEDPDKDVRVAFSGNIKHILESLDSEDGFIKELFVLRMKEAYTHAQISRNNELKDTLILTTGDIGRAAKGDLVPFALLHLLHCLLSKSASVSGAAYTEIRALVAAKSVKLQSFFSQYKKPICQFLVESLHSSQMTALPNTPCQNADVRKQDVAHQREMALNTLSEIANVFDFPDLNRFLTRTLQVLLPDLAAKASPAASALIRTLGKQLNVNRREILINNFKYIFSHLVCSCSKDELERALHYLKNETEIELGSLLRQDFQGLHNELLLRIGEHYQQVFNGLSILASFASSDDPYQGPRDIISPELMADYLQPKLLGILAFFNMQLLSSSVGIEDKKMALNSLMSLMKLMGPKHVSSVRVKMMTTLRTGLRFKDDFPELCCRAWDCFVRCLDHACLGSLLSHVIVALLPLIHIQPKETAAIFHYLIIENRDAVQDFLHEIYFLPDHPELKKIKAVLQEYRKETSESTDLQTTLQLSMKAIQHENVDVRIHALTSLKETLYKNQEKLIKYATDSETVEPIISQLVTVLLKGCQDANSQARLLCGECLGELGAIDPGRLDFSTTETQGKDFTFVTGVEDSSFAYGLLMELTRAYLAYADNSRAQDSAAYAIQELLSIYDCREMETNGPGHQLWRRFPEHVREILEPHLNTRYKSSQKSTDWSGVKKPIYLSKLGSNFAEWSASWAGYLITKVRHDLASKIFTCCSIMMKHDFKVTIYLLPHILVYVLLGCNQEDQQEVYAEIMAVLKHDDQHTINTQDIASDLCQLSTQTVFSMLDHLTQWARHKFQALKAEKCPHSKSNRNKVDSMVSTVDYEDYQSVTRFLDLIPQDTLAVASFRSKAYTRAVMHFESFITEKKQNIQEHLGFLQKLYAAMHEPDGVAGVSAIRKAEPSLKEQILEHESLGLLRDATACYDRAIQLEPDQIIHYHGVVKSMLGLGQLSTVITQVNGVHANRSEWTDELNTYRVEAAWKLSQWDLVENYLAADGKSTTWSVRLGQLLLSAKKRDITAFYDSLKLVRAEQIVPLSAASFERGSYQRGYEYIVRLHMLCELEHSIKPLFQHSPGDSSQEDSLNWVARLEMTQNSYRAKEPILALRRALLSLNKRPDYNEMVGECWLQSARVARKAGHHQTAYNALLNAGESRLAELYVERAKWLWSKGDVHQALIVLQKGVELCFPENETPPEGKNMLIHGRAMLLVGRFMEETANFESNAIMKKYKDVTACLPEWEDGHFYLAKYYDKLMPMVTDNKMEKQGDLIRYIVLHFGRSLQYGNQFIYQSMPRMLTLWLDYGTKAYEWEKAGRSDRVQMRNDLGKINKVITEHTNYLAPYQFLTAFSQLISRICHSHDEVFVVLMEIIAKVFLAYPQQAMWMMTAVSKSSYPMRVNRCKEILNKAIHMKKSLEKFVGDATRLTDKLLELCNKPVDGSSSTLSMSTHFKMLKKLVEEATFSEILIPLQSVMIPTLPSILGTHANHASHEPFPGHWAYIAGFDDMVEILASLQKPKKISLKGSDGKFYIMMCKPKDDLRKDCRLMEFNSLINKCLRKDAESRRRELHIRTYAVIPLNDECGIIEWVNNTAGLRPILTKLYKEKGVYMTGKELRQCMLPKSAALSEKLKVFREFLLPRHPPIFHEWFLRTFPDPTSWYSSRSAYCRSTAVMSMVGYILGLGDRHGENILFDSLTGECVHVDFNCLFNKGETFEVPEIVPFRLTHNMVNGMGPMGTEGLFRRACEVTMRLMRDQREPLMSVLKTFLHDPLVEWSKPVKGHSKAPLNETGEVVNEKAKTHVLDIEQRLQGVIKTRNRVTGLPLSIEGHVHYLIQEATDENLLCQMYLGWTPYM
T1 sequence (Q8WXE1 whole entry partner): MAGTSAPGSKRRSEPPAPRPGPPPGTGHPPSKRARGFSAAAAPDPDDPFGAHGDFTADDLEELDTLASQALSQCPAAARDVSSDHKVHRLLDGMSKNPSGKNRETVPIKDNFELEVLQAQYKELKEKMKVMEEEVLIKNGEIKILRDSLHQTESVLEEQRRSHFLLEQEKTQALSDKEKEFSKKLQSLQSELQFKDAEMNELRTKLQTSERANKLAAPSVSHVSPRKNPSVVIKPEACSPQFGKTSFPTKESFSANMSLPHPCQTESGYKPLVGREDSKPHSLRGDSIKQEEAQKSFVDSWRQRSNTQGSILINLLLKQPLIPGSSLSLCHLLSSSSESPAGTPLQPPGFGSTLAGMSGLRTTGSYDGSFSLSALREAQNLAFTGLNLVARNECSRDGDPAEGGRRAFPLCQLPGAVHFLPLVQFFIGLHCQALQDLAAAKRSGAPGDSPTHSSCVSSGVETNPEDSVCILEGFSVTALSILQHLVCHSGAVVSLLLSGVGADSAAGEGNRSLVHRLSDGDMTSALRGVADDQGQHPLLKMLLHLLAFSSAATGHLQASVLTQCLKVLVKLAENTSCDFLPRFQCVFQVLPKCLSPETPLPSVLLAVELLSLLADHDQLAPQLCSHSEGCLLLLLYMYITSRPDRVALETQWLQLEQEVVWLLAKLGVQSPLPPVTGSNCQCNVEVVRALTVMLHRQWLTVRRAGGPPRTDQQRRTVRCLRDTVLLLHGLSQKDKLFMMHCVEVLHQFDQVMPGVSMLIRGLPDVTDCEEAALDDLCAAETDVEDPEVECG

pIC50 (ATR kinase; [1])	pIC50 (LoVo cells)	pIC50 (LoVo cells; Homo sapiens, LoVo, 120 h)	SMILES	pIC50 (ATR kinase; [2])	IC50 (LoVo cells; Homo sapiens, LoVo, 120 h)
7.00 to 8.00	> 7.00		CC1c2cc(N3CCOC[C@H]3C)nc3c2c(nn3-c2cc[nH]n2)CCN1C1COC1 (single isomer, unassigned) [Compound 32B]		
> 8.00		> 7.00	C[C@@H]1COCCN1c1cc2c3c(nn(-c4cc[nH]n4)c3n1)CCN(C)C2(C)C [Compound 149, (R)-3-methyl-4-(6,6,7-trimethyl-2-(1H-pyrazol-3-yl)-6,7,8,9-tetrahydro-2H-1,2,3,7-tetraazabenzo[cd]azulen-4-yl)morpholine]		
7.00 to 8.00		6.00 to 7.00	CC(C)N1CCc2nn(-c3cc[nH]n3)c3nc(N4CCOC[C@H]4C)cc(c23)C1 [Compound 2]		
> 8.00	> 7.00		CCN1CCc2nn(-c3cc[nH]n3)c3nc(N4CCOC[C@H]4C)cc(c23)C1C (single isomer, unassigned) [Compound 41B]		
7.00 to 8.00		6.00 to 7.00	CCS(=O)(=O)N1CCc2nn(-c3cc[nH]n3)c3nc(N4CCOC[C@H]4C)cc(c23)C1C (single isomer, unassigned) [Compound 48A]		
7.00 to 8.00		> 7.00	CC(C)C1c2cc(N3CCOC[C@H]3C)nc3c2c(nn3-c2cc[nH]n2)CCN1C1COC1 (stereo partly drawn) [Compound 136, (3R)-4-(6-isopropyl-7-(oxetan-3-yl)-2-(1H-pyrazol-3-yl)-6,7,8,9-tetrahydro-2H-1,2,3,7-tetraazabenzo[cd]azulen-4-yl)-3-methylmorpholine]		
> 8.00	> 7.00		CCC1c2cc(N3CCOC[C@H]3C)nc3c2c(nn3-c2cc[nH]n2)CCN1S(C)(=O)=O (single isomer, unassigned) [Compound 144B]		
> 8.00		> 7.00	CCN1CCc2nn(-c3cc[nH]n3)c3nc(N4CCOC[C@H]4C)cc(c23)C1C (single isomer, unassigned) [Compound 41A]		
7.00 to 8.00		6.00 to 7.00	C[C@@H]1COCCN1c1cc2c3c(nn(-c4cc[nH]n4)c3n1)CCN(CC(F)(F)F)C2 [Compound 14, (R)-4-(2-(1H-pyrazol-3-yl)-7-(2,2,2-trifluoroethyl)-6,7,8,9-tetrahydro-2H-1,2,3,7-tetraazabenzo[cd]azulen-4-yl)-3-methylmorpholine]		
> 8.00	> 7.00		CCS(=O)(=O)N1CCc2nn(-c3cc[nH]n3)c3nc(N4CCOC[C@H]4C)cc(c23)C1C (single isomer, unassigned) [Compound 48B]		
> 8.00			CC1c2cc(N3CCOC[C@H]3C)nc3c2c(nn3-c2cc[nH]n2)CCN1C (single isomer, unassigned) [Compound 35B]		

Second part, the compound before the results:

SMILES	pIC50 (ATR kinase; [1])	pIC50 (LoVo cells)	pIC50 (LoVo cells; Homo sapiens, LoVo, 120 h)	pIC50 (ATR kinase; [2])	IC50 (LoVo cells; Homo sapiens, LoVo, 120 h)
CC1c2cc(N3CCOC[C@H]3C)nc3c2c(nn3-c2cc[nH]n2)CCN1S(=O)(=O)CCO (stereo partly drawn) [Compound 34]				> 8.00	100 to 1000 nM
C[C@@H]1COCCN1c1cc2c3c(nn(-c4cc[nH]n4)c3n1)CCN(C13CC(C1)C3)C2=O [Compound 139, (R)-7-(bicyclo[1.1.1]pentan-1-yl)-4-(3-methylmorpholinyl)-2-(1H-pyrazol-3-yl)-2,7,8,9-tetrahydro-6H-1,2,3,7-tetraazabenzo[cd]azulene-6-one]				> 8.00	100 to 1000 nM
C[C@@H]1COCCN1c1cc2c3c(n1)c(-c1cc[nH]n1)nn3CCCN2S(C)(=O)=O [Compound 121, (R)-3-methyl-4-(6-(methylsulfonyl)-2-(1H-pyrazol-3-yl)-6,7,8,9-tetrahydro-1,3,6,9a-tetraazabenzo[cd]azulen-4-yl)morpholine]	7.00 to 8.00		> 7.00		
CC1c2cc(N3CCOC[C@H]3C)nc3c2c(nn3-c2cc[nH]n2)CCN1S(=O)(=O)C1CC1F (single isomer, unassigned) [Compound 151D]	6.00 to 7.00	6.00 to 7.00			
C[C@@H]1COCCN1c1cc2c3c(n1)c(-c1cc[nH]n1)nn3CCC(=O)N2C1(C(F)F)CC1 [Compound 102, (R)-6-(1-(difluoromethyl)cyclopropyl)-4-(3-methylmorpholinyl)-2-(1H-pyrazol-3-yl)-8,9-dihydro-1,3,6,9a-tetraazabenzo[cd]azulene-7(6H)-one]				> 8.00	< 100 nM
CC(C)N1CCn2nc(-c3cc[nH]n3)c3nc(N4CCOC[C@H]4C)cc1c32 [Compound 63, (R)-4-(5-isopropyl-1-(1H-pyrazol-3-yl)-4,5-dihydro-3H-2,2a,5,8-tetraazaacenaphthen-7-yl)-3-methylmorpholine]	6.00 to 7.00		6.00 to 7.00		
C[C@@H]1COCCN1c1cc2c3c(nn(-c4cc[nH]n4)c3n1)CCN(C1CCOCC1)C2 [Compound 3, (R)-4-(2-(1H-pyrazol-3-yl)-7-(tetrahydro-2H-pyran-4-yl)-6,7,8,9-tetrahydro-2H-1,2,3,7-tetraazabenzo[cd]azulen-4-yl)-3-methylmorpholine]	7.00 to 8.00		6.00 to 7.00		
C[C@@H]1COCCN1c1cc2c3c(n1)c(-c1cc[nH]n1)nn3CCC(=O)N2C1CCOCC1 [Compound 91, (R)-4-(3-methylmorpholino)-2-(1H-pyrazol-3-yl)-6-(tetrahydro-2H-pyran-4-yl)-8,9-dihydro-1,3,6,9a-tetraazabenzo[cd]azulene-7(6H)-one]	7.00 to 8.00		6.00 to 7.00		
CC(C1CC1)N1C(=O)CCn2nc(-c3cc[nH]n3)c3nc(N4CCOC[C@H]4C)cc1c32 (stereo partly drawn) [Compound 100, 6-(1-cyclopropylethyl)-4-((R)-3-methylmorpholinyl)-2-(1H-pyrazol-3-yl)-8,9-dihydro-1,3,6,9a-tetraazabenzo[cd]azulene-7(6H)-one]				7.00 to 8.00	100 to 1000 nM
C[C@@H]1COCCN1c1cc2c3c(n1)c(-c1cc[nH]n1)nn3CCC(=O)N2Cc1cnn(C)c1 [Compound 99, (R)-6-((1-methyl-1H-pyrazol-4-yl)methyl)-4-(3-methylmorpholinyl)-2-(1H-pyrazol-3-yl)-8,9-dihydro-1,3,6,9a-tetraazabenzo[cd]azulene-7(6H)-one]				7.00 to 8.00	100 to 1000 nM
COCC12CC(N3C(=O)CCn4nc(-c5cc[nH]n5)c5nc(N6CCOC[C@H]6C)cc3c54)(C1)C2 [Compound 107, (R)-6-(3-(methoxymethyl)bicyclo[1.1.1]pentan-1-yl)-4-(3-methylmorpholinyl)-2-(1H-pyrazol-3-yl)-8,9-dihydro-1,3,6,9a-tetraazabenzo[cd]azulene-7(6H)-one]				> 8.00	100 to 1000 nM
C[C@@H]1COCCN1c1cc2c3c(nn(-c4cc[nH]n4)c3n1)CCN(c1ccccc1)C2 [Compound 17, (R)-3-methyl-4-(7-phenyl-2-(1H-pyrazol-3-yl)-6,7,8,9-tetrahydro-2H-1,2,3,7-tetraazabenzo[cd]azulen-4-yl)morpholine]	7.00 to 8.00		< 6.00		
CC1COCC1N1CCc2nn(-c3cc[nH]n3)c3nc(N4CCOC[C@H]4C)cc(c23)C1 (stereo partly drawn) [Compound 12, (3R)-3-methyl-4-(7-(4-methyltetrahydrofuran-3-yl)-2-(1H-pyrazol-3-yl)-6,7,8,9-tetrahydro-2H-1 ,2,3,7-tetraazabenzo[cd]azulen-4-yl)morpholine]	7.00 to 8.00		6.00 to 7.00		
CC1c2cc(N3CCOC[C@H]3C)nc3c2c(nn3-c2cc[nH]n2)CCN1S(=O)(=O)C1CC1F (single isomer, unassigned) [Compound 151B]	> 8.00	> 7.00			
C[C@@H]1COCCN1c1cc2c3c(n1)c(-c1cc[nH]n1)nn3CCN2 [Compound 61, (R)-4-(1-(1H-pyrazol-3-yl)-4,5-dihydro-3H-2,2a,5,8-tetraazaacenaphthen-7-yl)-3-methylmorpholine]	5.60 to 6.00				
C[C@@H]1COCCN1c1cc2c3c(n1)c(-c1cc[nH]n1)nn3CCC(=O)N2C1CC2(C1)CC(C)(O)C2 (stereo partly drawn) [Compound 94, (R)-6-(6-hydroxy-6-methylspiro[3.3]hept-2-yl)-4-(3-methylmorpholinyl)-2-(1H-pyrazol-3-yl)-8,9-dihydro-1,3,6,9a-tetraazabenzo[cd]azulene-7(6H)-one]				7.00 to 8.00	
